# Tests used:
# mouse ES cells = test: ES cell colony formation in normal or threonine-deficient medium with 3-HNV; format: cell-based; settings: varying levels of 3-HNV
# Procedure: Instead of the normal, 400 uM level of glycine, threonine-deficient medium was supplemented with 4 mM glycine. ES cells subjected to this threonine-deficient, glycine-enriched medium grew no better than those subjected to the threonine drop out medium itself. It is possible that ES cells are unable to deliver the supplemented glycine to mitochondria in order to feed the glycine cleavage system and folate charging. Alternatively, it is also possible that TDH-mediated production of acetyl-CoA is equally important to the HFB-like metabolic state. This alternative interpretation is consistent with the observation that among all metabolites that decline in abundance most precipitously as a function of the conversion of ES cells into differentiating embryoid bodies, acetyl-CoA was second only to the purine intermediate AICAR. In order to investigate these alternatives, we employed 3-hydroxynorvaline (3-HNV), a synthetic variant of threonine containing an extra carbon atom. […]
# • 1. […] TDH activity was determined by measuring the rate of formation of NADH at 25° C. The assay mixture contained 100 mM Tris-HCl (pH 8.0), 25 mM L-threonine, 5 mM NAD and 25 mM NaCl in a final volume of […] The reaction was initiated by the addition of mitochondrial protein extract, and absorbance of the reaction mixture at 340 nM was recorded continuously on a microplate reader. • 10. […]
# HeLa cells = test: HeLa cell growth with 3-HNV; format: cell-based
# Procedure: (§1) Instead of the normal, 400 uM level of glycine, threonine-deficient medium was supplemented with 4 mM glycine. ES cells subjected to this threonine-deficient, glycine-enriched medium grew no better than those subjected to the threonine drop out medium itself. It is possible that ES cells are unable to deliver the supplemented glycine to mitochondria in order to feed the glycine cleavage system and folate charging. Alternatively, it is also possible that TDH-mediated production of acetyl-CoA is equally important to the HFB-like metabolic state. This alternative interpretation is consistent with the observation that among all metabolites that decline in abundance most precipitously as a function of the conversion of ES cells into differentiating embryoid bodies, acetyl-CoA was second only to the purine intermediate AICAR. In order to investigate these alternatives, we employed 3-hydroxynorvaline (3-HNV), a synthetic variant of threonine containing an extra carbon atom. It is known that the TDH enzyme can […] this threonine analog, yet instead of producing glycine and acetyl-CoA, catabolism of 3-HNV yields glycine and propionyl-CoA (15). ES cells were cultured in either normal or threonine-deficient medium supplemented with varying levels of 3-HNV. […] The inhibitory effect of 3-HNV was not observed on the growth of HeLa, MEF or 3T3 cells.
# MEF cells = test: MEF cell growth with 3-HNV; format: cell-based, mouse
# Procedure: as §1
# 3T3 cells = test: 3T3 cell growth with 3-HNV; format: cell-based
# Procedure: as §1
# morula-staged embryos = test: Early mouse embryo development (morula to blastocyst) in culture with 3-HNV; format: cell-based
# Procedure: The availability of 3-HNV as a cell-permeable threonine analog facilitated experiments using living mouse embryos. Before testing the effects of 3-HNV on early mouse embryo development, in situ hybridization and immunohistochemical staining assays were performed to investigate the expression pattern of both TDH mRNA and TDH enzyme (16). […] Knowing that the ICM represents the in vivo source of ES cells (17), we hypothesized that the early development of mouse embryos might be inhibited by 3-HNV. […] These studies indicate that ICM cells of the early mouse embryo, like cultured mouse ES cells, are critically dependent upon threonine catabolism.
# • 1. B. Alberts et al., Molecular Biology of the Cell (Garland Publishing, Inc., New York, ed. March, 2007), pp. 1-1392. • 2. A. G. Smith, Annu. Rev. Cell Dev. Biol. 17, 435 (2001). • 3. B. P. Tu et al., Proc. Natl. Acad. Sci. U.S.A. 104, 16886 (2007). • 4. L. Warren, J. M. Buchanan, J. Biol. Chem. 229, 613 (1957). • H. Weissbach, A. Peterkofsky, B. G. Redfield, H. Dickerman, J. Biol. Chem. 238, 3318 (1963). • 6. E. A. Phear, D. M. Greenberg, J. Am. Chem. Soc. 79, 3737 (1957). • 7. Total RNA was extracted with RNA STAT-60 (Tel-Test) and converted into cDNA with oligo(dT) primer using the SuperScript first-strand synthesis kit (Invitrogen). PCR was performed on an AB 7900HT fast real-time PCR system (Applied Bioscience) using a TDH specific primer pair. • 8. R. A. Dale, Biochim. Biophys. Acta. 544, 496 (1978). • 9. TDH cDNA with an in-frame Flag tag sequence fused to the carboxyl terminus of the enzyme was cloned into mammalian expression vector pcDNA3.1 at EcoR1/Xho1 sites. The resultant vector was transfected into 293T cells using Lipofectamine 2000 reagent (Invitrogen). Stable transformants were selected in media containing 500 μg/ml G418 and characterized by western blotting analysis using anti-Flag antibody (Sigma). To extract mitochondrial protein, cells were homogenized in the buffer containing 10 mM Tris-HCl (pH 7.5), 250 mM sucrose and 2 mM EDTA on ice with a glass pestle douncer. Mitochondria were isolated from homogenates through a two-step differential centrifugation procedure at 600 and 11,000 g for 10 m each at 4° C. Mitochondrial protein was then extracted in 100 mM potassium phosphate buffer (pH 7.4) containing 0.1% NP-40, 10 mM DTT and 1× protease inhibitor cocktail (Sigma). TDH activity was determined by measuring the rate of formation of NADH at 25° C. The assay mixture contained 100 mM Tris-HCl (pH 8.0), 25 mM L-threonine, 5 mM NAD and 25 mM NaCl in a final volume of […] The reaction was initiated by the addition of mitochondrial protein extract, and absorbance of the reaction mixture at 340 nM was recorded continuously on a microplate reader. • 10. […]
smiles,measurement,setting,value
"CCC(O)[C@H](N)C(=O)O (stereo partly drawn) [3-HNV, 3-hydroxynorvaline]",ES cell colony formation,mouse ES cells; normal culture medium,inhibited ES cell colony formation
same,complementation of the absence of threonine (ES cell colony formation),mouse ES cells; threonine-deficient medium,fail to complement the absence of threonine
same,inhibitory effect on cell growth,HeLa cells,not observed
same,inhibitory effect on cell growth,MEF cells,not observed
same,inhibitory effect on cell growth,3T3 cells,not observed
same,conversion of morula-staged embryos into cavitated blastocysts,morula-staged embryos; 100 uM 3-HNV,A more modest degree of inhibition
same,conversion of morula-staged embryos into cavitated blastocysts,morula-staged embryos; 300 uM 3-HNV,blocked the conversion of morula-staged embryos into cavitated blastocysts
same,conversion of morula-staged embryos into cavitated blastocysts,morula-staged embryos; 1 mM 3-HNV,blocked the conversion of morula-staged embryos into cavitated blastocysts
same,embryo development with threonine supplementation,"morula-staged embryos; 1 mM 3-HNV, medium supplemented by 4 mM threonine",Complete rescue of normal development
